Experimental data from patent publication US5741671A, “Isolation cloning and expression of transmembrane water channel aquaporin 1(AQP1)” (The Johns Hopkins University, priority 1995, dated 1998).

Target: T1, AQP1 (Homo sapiens, UniProt P29972)
T1 sequence (P29972 1-269): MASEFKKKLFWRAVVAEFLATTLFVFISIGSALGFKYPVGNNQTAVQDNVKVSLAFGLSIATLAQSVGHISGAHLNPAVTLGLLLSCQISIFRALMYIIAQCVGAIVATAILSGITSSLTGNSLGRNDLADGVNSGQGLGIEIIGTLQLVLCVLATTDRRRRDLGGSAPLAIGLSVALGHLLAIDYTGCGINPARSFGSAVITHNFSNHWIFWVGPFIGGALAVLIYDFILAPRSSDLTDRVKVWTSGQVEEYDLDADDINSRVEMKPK
Test: Xenopus oocyte osmotic swelling assay, AQP1 RNA-injected oocytes (Example 4)
Type: cell-based
Parameters: expressed in transfected cells; host or cells: Xenopus laevis oocytes injected with in vitro transcribed AQP1 RNA
Conditions: for Pf (osmotic water permeability): AQP1 RNA-injected (10 ng) oocytes, 22° C.
Procedure: Expression of AQP1 in Xenopus oocytes. Oocytes were removed from female Xenopus laevis frogs and prepared as described by Dascal (CRC Crit. Rev. Biochem., 1987, 22:317-373). Oocytes were injected with 0.05 microliters of water (control) or the same volume of water containing 1-10 nanograms of AQP1 RNA. The oocytes were incubated for up to 96 hours at 18° C. in modified Barth's buffer (88 mM NaCl, 1 mM KCl, 0.8 mM MgSO4, 0.3 mM Ca(NO3)2, 0.4 mM CaCl2, 2.4 mm NaHCO3, 10 mM HEPES, pH=7.4, total osmolality=200 mOsm/kg) also containing antibiotics. The whole oocytes were then removed and total cellular protein was dissolved in 40 microliters of buffer containing 1% (w/v) SDS and analyzed by immunoblot (Towbin et al., 1979, Proc. Natl. Acad. Sci. USA 76:4350-4354).
A swelling assay was adapted from that of published work (Fischbarg et al., 1990, Proc. Natl. Acad. Sci. USA 87:3244-3247; Zhang et al., 1990, J. Biol. Chem. 265: 15375-15378). Control-injected oocytes and AQP1 RNA-injected oocytes were incubated at 22° C. in modified Barth's solution diluted with distilled H2 O to 30% of the original tonicity. The oocytes were then observed by videomicroscopy. Swelling was monitored with a Nikon phase-contrast microscope equipped for videorecording. The longest (D1) and shortest (D2) diameters of the oocytes were measured at 15- to 30-second intervals. Oocyte volumes (V) at each time point were calculated relative to volume at the initial observation (Vo):
The change in relative volume with time, d(V/Vo)/dt, up to 8 minutes (or time of oocyte rupture) was fitted by computer to a quadratic polynomial, and initial rates of swelling were calculated. Osmotic water permeability (Pf, in cm/s) was calculated from osmotic swelling data, initial oocyte surface area (S=0.045 cm^2), and the molar volume of water (Vw =18 cm^3 /mol) (Zhang et al., 1990, J. Biol. Chem. 15375):
Pf =Vo ×d(V/Vo)dt]/[S×Vw x(osmm
After 72 hours, control- or AQP1 RNA-injected (10 ng) oocytes were treated as indicated. Some oocytes were left in standard Barth's buffer prior to measurement of osmotic swelling at 22° C. Other oocytes were incubated 5 minutes in Barth's buffer containing 0.3 mM or 3 mM HgCl2 as described, then removed and incubated for 15 min in 5 mM β-mercaptoethanol prior to osmotic swelling in the presence of β-mercaptoethanol.
After 72 hours, control-injected oocytes and oocytes injected with 0.1 to 10 ng of AQP1 RNA were studied for osmotic swelling at 22° C. The amount of AQP1 protein was estimated by dilutional immunoblotting (Denker et al., 1988, J. Biol. Chem. 263:15634; Laemmli, 1970, Nature 227:680; Towbin et al., 1979, Proc. Natl. Acad. Sci., 76:4350; Davis and Bennett, 1982, 257:5816).

restoration of swelling after HgCl2 inhibition (5 mM β-mercaptoethanol after 0.3 mM HgCl2)	Compound	inhibition of swelling of AQP1 RNA-injected oocytes (0.3 mM HgCl2)	Pf (osmotic water permeability) (0.3 mM HgCl2 5 minutes) [cm/s x 10^-4]	Pf (osmotic water permeability) (3.0 mM HgCl2 5 minutes) [cm/s x 10^-4]
restored	OCCS [β-mercaptoethanol]	–	–	–
–	[Cl][Hg][Cl] [HgCl2]	inhibited	80.7	34.5
